# Laboratory results taken from article PMC11555717 (Cancer Medicine, 2024).
# “Also recorded” adds a separate entry of the source. Marks after values point to notes of the source that are not given here.
# Tested on: Chinese patients with previously treated locally advanced or metastatic urothelial carcinoma
# Assay: EV-203 phase 2: antitumor activity per RECIST v1.1 (IRC and investigator), PFS, OS
# Format: in vivo, human
# Conditions: for Confirmed disease control rate (95% CI): CR, PR or stable disease; for Duration of response, median (95% CI): NE = not evaluable; for Confirmed best overall response: Stable disease: minimum duration 49 days; for Confirmed objective response rate (95% CI): RECIST v1.1, 1.25 mg/kg
# Description: This was a single‐arm, open‐label phase 2 study that enrolled patients from six centers in China. Up to 40 patients were planned for enrollment. Two of the study centers were designated as PK cohort sites and planned to enroll 12 or more patients who agreed to intensive PK sampling for PK analysis in addition to safety and efficacy assessments.
# The study enrolled Chinese adults (age ≥ 18 years or considered an adult per local regulations) with histologically or cytologically confirmed UC/transitional cell carcinoma of the bladder, renal pelvis, ureter, or urethra not amenable to curative intent treatment. Patients with other histologies, including adenocarcinoma, squamous differentiation, or mixed, were also eligible. Patients must have received prior treatment with platinum‐based chemotherapy and PD‐1/L1 inhibitor therapy in the locally advanced or metastatic setting or in the neoadjuvant or adjuvant setting with recurrence or progressive disease during therapy or within 12 months (platinum‐based chemotherapy) or 3 months (PD‐1/L1 inhibitor) of completion of treatment; had baseline measurable disease according to Response Evaluation Criteria in Solid Tumors (RECIST) version 1.1; and an Eastern Cooperative Oncology Group performance status (ECOG PS) of 0–1. Key exclusion criteria were preexisting grade 2 or higher sensory/motor neuropathy; active central nervous system metastases; clinically significant toxicity associated with prior treatment; ongoing grade 3 or higher immunotherapy‐related hypothyroidism or panhypopituitarism, ongoing immunotherapy‐related colitis, uveitis, myocarditis, or pneumonitis; other immunotherapy‐related adverse events (AEs) requiring high‐dose steroids (prednisone > 20 mg/day or equivalent); or history of uncontrolled diabetes mellitus (glycated hemoglobin ≥ 8% or between 7% and < 8% with diabetes‐related symptoms not otherwise explained) within 3 months prior to the first study dose.
# Study treatment continued until one or more of the following occurred: patient or investigator decision; documented radiologic disease progression per RECIST version 1.1 by investigator assessment; start of new anticancer therapy; unacceptable toxicity; pregnancy; protocol noncompliance; or more than six consecutive doses of study treatment missed by the patient. Prespecified dose modifications were permitted depending on AE type and severity.
# Antitumor activity was assessed every 8 weeks (±1 week) via computed tomography with contrast. After 1 year of study, imaging frequency was reduced to every 12 weeks (±1 week). Complete response (CR) and partial response (PR; per RECIST version 1.1) were confirmed by repeat scans conducted at least 4 weeks after the initial response. Responses were assessed by investigators and an independent review committee (IRC). Tumor assessments were continued until the study end or the first occurrence of radiologic disease progression per RECIST version 1.1, as determined by investigator assessment, the patient initiated new anticancer therapy, or the patient died, withdrew study consent, or was lost to follow‐up.
# The primary efficacy endpoint was confirmed ORR as assessed by IRC. The ORR was defined as the proportion of patients with CR or PR according to RECIST version 1.1. […] Other primary endpoints included selected PK parameters of ADC, TAb, and free MMAE.
# Secondary endpoints were confirmed ORR by investigator assessment; DOR, disease control rate (DCR), and progression‐free survival (PFS) by IRC and investigator assessments; OS; incidence of ATAs to ADC; and safety/tolerability. PFS was defined as the time from the start of the study treatment to the first documentation of objective tumor progression (i.e., progressive disease per RECIST version 1.1) by IRC or investigator assessment (whichever was specified) or to death due to any cause, whichever came first. OS was defined as the time from the start of study treatment to the date of death due to any cause. […]
substance,measurement,setting,value
"enfortumab vedotin: fully human monoclonal ADC directed to Nectin-4, delivering intracellular monomethyl auristatin E (MMAE) to tumor cells",Median time to response,IRC assessment,"1.8 (range, 1.7–3.8) months"
same,Median PFS,"IRC assessment, N = 40",4.7 months
same,"Best overall response PR, patients","IRC, 14 patients",35.0%
same,Patients with reductions of 30% or more from baseline in target lesions,"IRC, 24 of 37 patients",64.9%
same,Patients with reduction in sum of diameters of target lesions from baseline,"IRC, 33 of 37 patients with baseline and postbaseline assessments",89.2%
same,Confirmed disease control rate (95% CI),"IRC, N = 40",72.5 (56.1–85.4) %
same,Rate of duration of response (95% CI) at 6 months,"IRC, Kaplan–Meier",59.7 (22.2–83.8) %
same,"Duration of response, median (95% CI)","IRC, Kaplan–Meier",not reached; also recorded: NE (2.04–NE)
same,Confirmed best overall response: CR,"IRC, N = 40",1 (2.5) n (%)
same,Confirmed best overall response: NE (not evaluable),"IRC, N = 40",4 (10.0) n (%)
same,Confirmed best overall response: PR,"IRC, N = 40",14 (35.0) n (%)
same,Confirmed best overall response: Progressive disease,"IRC, N = 40",7 (17.5) n (%)
same,Confirmed best overall response: Stable disease,"IRC, N = 40",14 (35.0) n (%)
same,Confirmed objective response rate (95% CI),"IRC, N = 40",37.5 (22.7–54.2) ^b %
same,"ORR, subgroup patients with liver metastases","IRC, n/N = 5/11",45.5%
same,"ORR, subgroup three or more lines of systemic therapy","IRC, n/N = 6/18",33.3%
same,"ORR, subgroup baseline ECOG PS of 0","IRC, n/N = 7/10",70.0%
same,"ORR, subgroup primary tumor site bladder or other","IRC, n/N = 7/11",63.6%
same,"ORR, subgroup primary tumor site upper tract","IRC, n/N = 8/29",27.6%
same,"ORR, subgroup baseline ECOG PS of 1","IRC, n/N = 8/30",26.7%
same,"Best overall response CR, patients","IRC, one patient",2.5%
same,Confirmed disease control rate (95% CI),"Investigator, N = 40",82.5 (67.2–92.7) %
same,Rate of duration of response (95% CI) at 6 months,"Investigator, Kaplan–Meier",61.1 (26.2–83.4) %
same,"Duration of response, median (95% CI)","Investigator, Kaplan–Meier",not reached; also recorded: NE (2.04–NE)
same,Confirmed best overall response: CR,"Investigator, N = 40",0 n (%)
same,Confirmed best overall response: NE (not evaluable),"Investigator, N = 40",3 (7.5) n (%)
same,Confirmed best overall response: PR,"Investigator, N = 40",17 (42.5) n (%)
same,Confirmed best overall response: Progressive disease,"Investigator, N = 40",4 (10.0) n (%)
same,Confirmed best overall response: Stable disease,"Investigator, N = 40",16 (40.0) n (%)
same,Confirmed objective response rate (95% CI),"Investigator, N = 40",42.5 (27.0–59.1) %
same,Overall survival at 6 months (95% CI),"Kaplan–Meier, N = 40",78.0 (60.1–88.6) %
same,Median PFS,"investigator assessment, N = 40",4.2 months
same,Median OS,median follow-up 6.5 months,not reached (lower bound of 95% CI: 6.74)
